Experiments:
[1] = tested on: EPHB2 kinase domain; experiment: ADP-Quest continuous fluorimetric kinase assay (initial rates of consensus peptides); type: biochemical, human; conditions: peptide 100 μM, kinase 10–50 nM; Figure 2C
From the text: (§1) A fluorescence-based assay from Eurofins (ADP Quest) was used to measure the Michaelis-Menten kinetic parameters for phosphorylation of the consensus peptides by purified tyrosine kinase domains. In this assay, ADP production as a result of kinase activity is coupled to the production of resorufin, a fluorophore that emits signal at 590 nm. For all experiments, the assay reactions were set up as described in the provided assay kit protocol, in a 384 well plate format. The peptide solutions were serially diluted in 100 mM Tris, pH 8.0, and the kinases were diluted to 50 nM in buffer (10 mM HEPES, 100 mM NaCl, 1 mM TCEP, 5 mM MgCl2, 10% (v/v) glycerol). The final reaction mixtures contained 10 nM of kinase with 100 μM of ATP. […] Phosphorylation reaction progress was monitored by measuring fluorescence at excitation 530 nm and emission 590 nm every 2 min at 37 °C on a plate reader (BioTek Synergy Neo 2). The fluorescence units (RFU) were converted to μM ADP by comparison to a standard curve, and the initial rates were extracted from the linear regime of the reaction progress curves. Initial rates were also measured for samples containing each kinase but lacking a peptide substrate, to account for background ATP hydrolysis. This background rate was subtracted from the rates measured in the presence of peptide. […]

[2] = biological target: T1, c-Abl kinase domain (Mus musculus, UniProt P00520); experiment: ADP-Quest continuous fluorimetric kinase assay (Michaelis-Menten parameters and initial rates); type: biochemical; conditions: peptide 100 μM, kinase 10–50 nM; Figure 2C
T1 sequence (P00520 242-493 limits assumed): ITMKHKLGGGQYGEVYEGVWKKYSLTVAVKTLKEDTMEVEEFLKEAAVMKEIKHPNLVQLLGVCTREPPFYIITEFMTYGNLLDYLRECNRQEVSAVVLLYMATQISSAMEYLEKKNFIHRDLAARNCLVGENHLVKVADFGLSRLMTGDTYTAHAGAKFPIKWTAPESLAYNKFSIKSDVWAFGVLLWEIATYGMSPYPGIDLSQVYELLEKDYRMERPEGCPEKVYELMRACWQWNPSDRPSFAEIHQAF
From the text: as §1

[3] = tested on: EPHB2 kinase domain; experiment: pTyr-Var library bacterial peptide display kinase screen (enrichment scores); type: biochemical, human; conditions: sheet EPHB2;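 also: log2 fold change in enrichment of variant over reference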
[4] = tested on: EPHB1 kinase domain; experiment: as above; type: biochemical, human; conditions: for Screen (variant relative to reference peptide, measured in the pTyr-Var library screen): sheet "EPHB1", variant seq vs reference seq, bacterial peptide display enrichment; for Screen: sheet EPHB1, effect of the variant peptide relative to its reference peptide in the pTyr-Var library screen (enrichment scores)
[5] = biological target: T1, c-Abl kinase domain; experiment: as above; type: biochemical
[6] = tested on: Fer kinase domain; experiment: as above; type: biochemical, mouse; conditions: sheet "Fer";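 also: log2 fold change in enrichment of variant over reference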
[7] = biological target: c-Src kinase domain (Homo sapiens, UniProt P12931); experiment: as above; type: biochemical; conditions: sheet "Src";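 also: log2 fold change in enrichment of variant over reference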
[8] = effect of the variant relative to its reference peptide in the pTyr-Var library screen
[9] = sheet "Abl", effect of variant peptide relative to its reference peptide in pTyr-Var library screen (enrichment)
[10] = variant peptide relative to its reference peptide, pTyr-Var library screen enrichment
[11] = variant peptide versus its reference peptide in the pTyr-Var library screen
[12] = value of the variant peptide against its reference peptide in the pTyr-Var library screen with Fer
[13] = effect of the variant peptide relative to its reference peptide in the pTyr-Var library screen
[14] = effect of variant peptide relative to its reference peptide in the pTyr-Var library screen (enrichment scores)
[15] = fig5-data2, sheet "Abl", Screen for the variant/reference peptide pair, pTyr-Var library

Row | Substance | Screen [4] | Screen [6, 12] | Screen [7, 13] | Screen [3, 14] | other results
1 | Ac-GPPEPIYEVPPPKKKG-NH2 [EPHB2 Consensus, EPHB2 consensus substrate peptide from X5-Y-X5 screen] |  |  |  |  | phosphorylation of consensus peptide by EPHB2 (initial rate relative to cognate consensus) [1]: efficiently phosphorylated; phosphorylation of consensus peptide by c-Abl (initial rate relative to cognate consensus) [2]: efficiently phosphorylated
2 | DASENYFVMDS [TMEM240_Y77_T80M] |  |  |  |  | Screen [3, 8]: 2.274; Screen (variant relative to reference peptide, measured in the pTyr-Var library screen) [4]: 2.244
3 | DNEAIYDICRC [TUBA4A_Y210_R215C] |  |  |  |  | Screen [5, 9]: -0.2438; Screen [3, 8]: -0.1529; Screen (variant relative to reference peptide, measured in the pTyr-Var library screen) [4]: -1.159; Screen [6, 10]: -0.3932; Screen [7, 11]: 0.192
4 | DSFATYFRWVL [H2BW1_Y84_R87W] | 1.664 | 2.515 | 2.683 |  | 
5 | DSNLIYSQIWS [FCRL3_Y662_P660L] | -0.4048 | -0.3219 | -0.2629 | -0.3687 | 
6 | EAVSIYQFFGQ [CBLC_Y402_H405Y_YF] | 2.283 | -0.2521 | -0.1267 | 1.796 | 
7 | FADGVYLALEE [DUOX2_Y70_Q71L_YF] | -0.7119 |  | -0.6157 | -0.6876 | 
8 | FAELMYTGFWH [ASS1_Y322_V321M] | 0.6121 | -0.4066 | -0.1313 | 0.8429 | 
9 | FFPANYVAPMT [GRAP2_Y324_L319F] | 0.4698 |  |  | 0.7095 | 
10 | FVFSFYHAFSG [ACTN4_Y265_S262F_YF] | -0.8684 |  | -2.513 |  | 
11 | GNLLIYTDFGK [HGD_Y166_E168D] | 0.7596 |  | -0.3604 |  | 
12 | HGEAFYSEVKA [PAK5_Y182_P187A_YF] | -0.6457 | -0.1663 |  |  | Screen [7, 11]: 0.7945
13 | HRGHLYLAIEF [TEK_Y899_Y897H_YF] |  |  |  |  | Screen (variant relative to reference peptide, measured in the pTyr-Var library screen) [4]: 0.9917; Screen [7, 11]: 2.155
14 | ITNLLYHVVSW [GBA_Y412_G416S] | 0.5526 |  | -0.28 | 0.7379 | 
15 | LASLIYNFILF [AQP6_Y231_V234I] | 0.3462 | 0.3008 | 0.7887 | -1.512 | 
16 | LENSTYQFICV [CRB1_Y760_R764C_YF] | -0.5365 | -1.109 | -1.066 | 0.2665 | Screen [5, 15]: 0.05369
17 | LGQRIYQFIRS [DYRK1B_Y271_Q275R_YF] | -0.4041 | -0.8955 | -0.5682 | -1.048 | 
18 | LIFVSYDDWDF [GRIN2A_Y281_S278F_YF] | 0.6915 | -0.259 | 0.7047 | 1.496 | 

Row | Substance | Screen [4] | Screen [6, 12] | Screen [7, 13] | Screen [3, 14] | other results
19 | LLDGEYFTLQI [TP53_Y327_P322L] |  |  |  |  | Screen (variant relative to reference peptide, measured in the pTyr-Var library screen) [4]: 0.245; Screen [6, 10]: 0.2479; Screen [7, 11]: 0.8932
20 | LPEENYQVLCF [ARHGAP1_Y365_R369C] | 1.32 | 1.701 | 2.107 | 1.989 | 
21 | LRWREYQRQDF [PRKRIP1_Y90_R87W_YF] | 1.398 | 1.318 |  | 1.877 | Screen [7, 11]: 1.62
22 | LTERDYSFVTT [ACTG2_Y199_G198D] | 1.497 | 1.738 |  | 1.327 | 
23 | MSRNLYSGDCF [DDR2_Y736_Y740C_YF] | -1.85 | -0.7796 | -1.107 | -2.168 | 
24 | NIEPIYLNMLL [ATR_Y317_V316I] | 0.9992 | 0.3194 | 0.03812 | 1.556 | 
25 | NPIGLYSAEIL [LDB3_Y202_T206I] | 0.7886 | 1.652 |  | 0.5797 | 
26 | NREGVYRVFAP [TGFBI_Y537_T538R] |  |  |  |  | Screen [3, 8]: -2.433; Screen (variant relative to reference peptide, measured in the pTyr-Var library screen) [4]: -2.691; Screen [6, 10]: -4.485; Screen [7, 11]: -0.9266
27 | NTILLYHIMAW [GPR143_Y157_S152N] | 0.2317 |  |  | 0.3631 | Screen [5, 15]: 0.6057
28 | PIFLFYLMDLS [ITGB2_Y131_D128Y_YF] | 1.841 |  | -0.3916 |  | 
29 | PTKNDYWAMPA [WWOX_Y287_L291P] |  |  |  |  | Screen [5, 9]: -1.562; Screen [3, 8]: 3.139; Screen (variant relative to reference peptide, measured in the pTyr-Var library screen) [4]: 3.488
30 | QNTGDYCDLFG [PTPN11_Y62_Y63C_YF] | -1.22 |  |  | -1.274 | Screen [7, 11]: -0.9656
31 | RAILLYEFVGK [NATD1_Y45_V42I_YF] | 1.082 | 1.125 |  | 1.274 | Screen [7, 11]: 1.103
32 | RGDCMYASLLG [AR_Y269_P271S] | -1.7 | -2.075 | 0.07196 | -2.657 | 
33 | RKVLVYDKLNV [ROR2_Y624_N620K] | -0.6022 |  |  | -1.435 | Screen [6, 10]: -1.726; Screen [7, 11]: -1.144
34 | RRIFSYRGHLW [VHL_Y112_H110Y_YF] |  |  |  |  | Screen [5, 9]: -4.34; Screen (variant relative to reference peptide, measured in the pTyr-Var library screen) [4]: -1.652; Screen [7, 11]: -2.013
35 | SCPANYFAFKI [FAM3D_Y65_P60S] | -0.6297 |  | -0.7557 | -0.7683 | 
36 | SPPILYSFFLN [FCRL6_Y239_D244N_YF] | 0.08597 | 1.473 | 0.0865 | 0.2765 | 
